Results on two molecules are retold here after publication PMC8065987, “Identification of Anti-Inflammatory and Anti-Proliferative Neolignanamides from Warburgia ugandensis Employing Multi-Target Affinity Ultrafiltration and LC-MS” (Pharmaceuticals, 2021).

SMILES strings stand for the structures. Read-outs that look alike come from different tables or passages of the source. Some results are limits rather than exact numbers.

In one data set the target is T1, 5-LOX (Homo sapiens, UniProt P09917).
T1 construct: purchased Cayman Chemical Co., Ltd. (Ann Arbor, MI, USA)
T1 sequence (P09917 1-674): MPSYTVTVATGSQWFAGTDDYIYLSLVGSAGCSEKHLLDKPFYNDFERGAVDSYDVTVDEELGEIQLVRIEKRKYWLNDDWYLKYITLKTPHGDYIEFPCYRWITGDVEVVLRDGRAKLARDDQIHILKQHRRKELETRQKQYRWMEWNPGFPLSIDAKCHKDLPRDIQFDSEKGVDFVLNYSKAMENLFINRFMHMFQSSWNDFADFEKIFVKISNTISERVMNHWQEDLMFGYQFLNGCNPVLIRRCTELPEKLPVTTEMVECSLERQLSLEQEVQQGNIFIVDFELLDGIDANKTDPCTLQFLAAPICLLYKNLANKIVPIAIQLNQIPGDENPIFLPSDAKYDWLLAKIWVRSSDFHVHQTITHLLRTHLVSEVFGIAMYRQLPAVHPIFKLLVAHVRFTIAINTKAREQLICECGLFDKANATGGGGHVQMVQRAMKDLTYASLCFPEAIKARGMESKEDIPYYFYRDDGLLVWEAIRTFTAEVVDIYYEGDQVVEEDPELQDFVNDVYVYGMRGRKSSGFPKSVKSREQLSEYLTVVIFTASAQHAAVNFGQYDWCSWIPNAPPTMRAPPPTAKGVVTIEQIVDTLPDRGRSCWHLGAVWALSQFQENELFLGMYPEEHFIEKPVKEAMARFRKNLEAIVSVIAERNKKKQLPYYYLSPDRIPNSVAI
Description: Affinity ultrafiltration HPLC-MS/MS (AUF-HPLC-MS/MS) of WE-P with 5-LOX. The following applies: relative binding strength = Aactive/Asample × 100%; peak in WE-P; n = 3. Here is the method: (§1) The relative binding strength (RBS) was employed to compare the variation of the correlated peak areas in the AUF-HPLC-UV chromatograms before and after incubation with enzymes to evaluate the affinity binding abilities between potential ligands and target enzymes. The RBS formula is expressed as: RBS = (Aactive/Asample) × 100%, where the Aactive represents the peak areas obtained from the WE-P samples incubated with COX-2, 5-LOX, Top I or Top II, respectively; the Asample represents the peak areas obtained from WE-P samples without ultrafiltration. […] Namely, the special binding capacities of peak 2 with COX-2, 5-LOX, Top I and Top II might be stronger than that of peak 1. […] Therefore, it could be preliminarily estimated that peak 1 and peak 2 were the main bioactive components in WE-P which were closely related to its anti-inflammatory and anti-proliferative activities. These compounds were then identified based on their MS/MS data, related references and NMR or UPLC-QTOF-MS/MS data of isolated compounds, and the results are shown in Table 2.
(§2) Affinity ultrafiltration screening was slightly modified and carried out according to some previous studies. Firstly, approximately 100 µL of WE-P (10.0 mg/mL) were incubated with 10 µL of enzymes (2 U, COX-2, 5-LOX, Top I or Top II), and 90 µL of Tris-HCl (pH = 7.8) at 37 °C in the darkness for 1 h. […]

The next data set has as its system Top I. Nature of the data set: Affinity ultrafiltration HPLC-MS/MS (AUF-HPLC-MS/MS) of WE-P with Top I. The conditions noted are these: relative binding strength = Aactive/Asample × 100%; peak in WE-P; n = 3. Here is the method:
as §1, §2

A further data set deals with Top II. Nature of the data set: Affinity ultrafiltration HPLC-MS/MS (AUF-HPLC-MS/MS) of WE-P with Top II. The following applies: relative binding strength = Aactive/Asample × 100%; peak in WE-P; n = 3. Here is the method: as §1, §2
Data set [1] deals with Hela cells. Nature of the data set: Cell proliferative assay (SRB), Hela. The class given is cell-based. The conditions noted are these: Homo sapiens, 48 h, read-out: Anti-proliferative IC50, Hela cells. Here is the method:
(§3) Human non-small cell lung adenocarcinoma cell line (A549) and human cervical cancer cell line (Hela) were obtained from the American Type Culture Collection (ATCC, Manassas, VA, USA) and maintained in Ham’s F-12K medium supplemented with 10% fetal bovine serum (FBS), 1% penicillin, and 1% streptomycin in a cell incubator under humidified conditions with 5% CO2 at 37 °C, and the procedures were slightly modified from previous method. To evaluate the proliferative activity of A549 cell line and Hela cell line, the SRB assay was carried out according to the manufacturer’s instructions (Beyotime, Shanghai, China). Briefly, these two cell lines were seeded into 96-well plates at a density of 1.0 × 10^4 per well. After 24 h incubation, the tested samples were dissolved in the DMSO and sequentially diluted with cell culture medium and added to each well at the specified concentrations. Cell viability was assessed by SRB 48 h later. Absorbances was measured by a Tecan microplate reader (Tecan Infinite M200 Pro, Tecan Group Ltd., Männedorf, Switzerland) at a wavelength of 540 nm. The experiments were performed in triplicate. The anti-proliferative activities were expressed as IC50. […] The data were expressed as mean ± standard deviation (SD) of three replicates.

In data set [2] the test system is A549 cells. Description: Cell proliferative assay (SRB), A549. The class given is cell-based. The following applies: Homo sapiens, 48 h, read-out: Anti-proliferative IC50, A549 cells. Here is the method:
as §3

Data set [3] relates to human peripheral blood mononuclear cells (PBMCs) stimulated by lipopolysaccharide (LPS). The arrangement: method as in PMID 32877711. The conditions noted are these: 100 µM; cited from earlier work.
The next data set deals with RAW 264.7 cell line. The arrangement: method as in doi:10.1016/j.phytol.2019.01.020. The conditions noted are these: LPS-stimulated RAW 264.7; read-out: Inhibition of NO production IC50; cited from earlier work.
The test system of data set [4] is Hela cells. The arrangement: method as in PMID 33301798. The following applies: previous study; read-out: Anti-proliferative IC50, Hela cells; cited from earlier work.
Data set [5] relates to human mammary adenocarcinoma (MCF-7) cells. Also noted: method as in PMID 33301798. The conditions noted are these: previous study; read-out: Anti-proliferative IC50, MCF-7 cells; cited from earlier work.
In data set [6] the test system is A549 cells. The arrangement: method as in PMID 33301798. The conditions noted are these: previous study; read-out: Anti-proliferative IC50, A549 cells; cited from earlier work.
For a further data set, the system named is Hela cell line. Also noted: method as in PMID 32212861. The conditions noted are these: previous study; cited from earlier work.
In data set [7] the test system is LNCaP human prostate cancer cell. Also noted: method as in PMID 11858758. The conditions noted are these: previous study; cited from earlier work.
A further data set relates to MCF-7. The arrangement: method as in PMID 27504537. The conditions noted are these: 72 h; read-out: GI50 (the 50% growth inhibition in 72 h), MCF-7; cited from earlier work.
In data set [8] the test system is human prostate cancer (PC-3) cells. Also noted: method as in PMID 27504537. The conditions noted are these: 72 h; read-out: GI50 (the 50% growth inhibition in 72 h), PC-3; cited from earlier work.
Data set [9] has as its system human colorectal adenocarcinoma (Caco-2) cells. The arrangement: method as in PMID 27504537. The following applies: inactive or poorly active; cited from earlier work.
Data set [10] has as its target T2, COX-2 (Homo sapiens, UniProt P35354).
T2 sequence (P35354 18-604): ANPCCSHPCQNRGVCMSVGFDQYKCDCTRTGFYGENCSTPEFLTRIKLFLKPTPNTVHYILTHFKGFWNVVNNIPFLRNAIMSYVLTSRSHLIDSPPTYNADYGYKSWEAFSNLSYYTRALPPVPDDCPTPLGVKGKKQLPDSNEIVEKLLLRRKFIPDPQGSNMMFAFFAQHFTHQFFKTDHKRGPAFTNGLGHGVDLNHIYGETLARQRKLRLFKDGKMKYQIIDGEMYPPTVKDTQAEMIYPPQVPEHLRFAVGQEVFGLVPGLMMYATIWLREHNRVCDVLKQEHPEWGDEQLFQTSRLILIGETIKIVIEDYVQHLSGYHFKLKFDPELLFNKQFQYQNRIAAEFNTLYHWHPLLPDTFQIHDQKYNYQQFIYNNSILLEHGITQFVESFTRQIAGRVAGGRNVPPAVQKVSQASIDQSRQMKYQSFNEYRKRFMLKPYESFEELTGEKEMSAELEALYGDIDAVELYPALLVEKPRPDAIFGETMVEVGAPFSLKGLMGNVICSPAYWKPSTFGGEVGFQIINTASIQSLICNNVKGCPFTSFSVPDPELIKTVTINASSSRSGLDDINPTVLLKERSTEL
Description: In vitro COX-2 inhibitory assay (COX-2 (human) inhibitor screening assay kit, fluorescence). The class given is biochemical. Also noted: purchased Beyotime Biotechnology (Shanghai, China) S0168. The conditions noted are these: triplicate; read-out: COX-2 inhibition IC50 (isolated compounds). Here is the method: Thirdly, 10 µL COX-2 probe was added into each well. […] The experiments were performed in triplicate.

The target in data set [11] is T2, COX-2. Nature of the data set: Affinity ultrafiltration HPLC-MS/MS (AUF-HPLC-MS/MS) of WE-P with COX-2. The conditions noted are these: relative binding strength = Aactive/Asample × 100%; peak in WE-P; n = 3. The arrangement: purchased Wuhan Antgene Biotechnology Co., Ltd. (Wuhan, China). Here is the method: as §1, §2

In general, IC50 refers to the concentration needed to halve the response being measured. As a reminder, the GI50 is the concentration giving 50% growth inhibition. Consider `COc1cc(C2Oc3c(OC)cc(/C=C/C(=O)NCCc4ccc(O)cc4)cc3C2C(=O)NCCc2ccc(O)cc2)ccc1O` (stereo not drawn) [Compound 2, N-trans-grossamide], for which the “UF-RBS (%) 5-LOX” value at 5-LOX amounted to 42.00 ± 1.26%. In addition, the “UF-RBS (%) Top I” value in the data set with Top I is given as 76.2 ± 5.20%. In addition, in the data set on Top II, the “UF-RBS (%) Top II” value stood at 58.57 ± 3.82%. The IC50 was 72.8 ± 0.839 µM in the data set with Hela cells [1]; above 100 µM in the data set with A549 cells [2]; 52.5 ± 6.1 µM in the data set with RAW 264.7 cell line; 20.1 ± 3.05 µM with Hela cells [4]; 11.4 ± 1.62 µM in data set [5]; 13.5 ± 3.66 µM in the data set on A549 cells [6]. Further, the IC50 at COX-2 [10] is 1.95 ± 0.381 µM. Further, the “Release of GM-CSF” value in [3] is on record as 1.61 % of LPS control. In data set [3], the “Release of IL-1β” value is reported as 2.14 % of LPS control. Also, the “Release of IL-2” value in data set [3] is reported as 11.61 % of LPS control. Besides, in [3], the “Release of TNF-α” value is recorded as 0.06 % of LPS control. In addition, the “Anti-proliferative activity on Hela cell line” value with Hela cell line is listed as “moderate anti-proliferative activity”. The “Cytotoxicity in cultured LNCaP cells” value in data set [7] is given as “moderate cytotoxicity”. In addition, the GI50 in the data set with MCF-7 was 24 µM; in data set [8] it was 21 µM; in data set [9], above 100 µM. In addition, the “UF-RBS (%) COX-2” value on COX-2 [11] is on record as 27.39 ± 1.58%.
With `COc1cc(C2Oc3c(OC)cc(/C=C\C(=O)NCCc4ccc(O)cc4)cc3C2C(=O)NCCc2ccc(O)cc2)ccc1O` (stereo not drawn) [Compound 1, N-cis-grossamide], on 5-LOX, the “UF-RBS (%) 5-LOX” value is 16.74 ± 0.65%. Moreover, in the data set with Top I, the “UF-RBS (%) Top I” value is recorded as 34.25 ± 2.81%. In addition, the “UF-RBS (%) Top II” value in the data set with Top II stood at 24.53 ± 1.54%. For the same molecule, the values for the IC50 in the data set on Hela cells [1], with A549 cells [2] and on COX-2 [10] were 84.4 ± 1.79 µM, above 100 µM and 4.41 ± 0.249 µM, respectively. Moreover, at COX-2 [11], the “UF-RBS (%) COX-2” value is 20.15 ± 0.12%.
